# Reference: US7737256B2, “Antibody against uPA/uPAR” (Fondazione Centro San Raffaele Del Monte Tabor, priority 2001, dated 2010)
# Legend:
# THP-1 cells = experiment: chemotaxis of THP-1 cells (modified Boyden chambers); type: cell-based, human
# Description: (§1) Chemotaxis assays were performed as described (Degryse, 1999) with modified Boyden chambers using filters (5 μm pore size, Corning) treated with collagen I (100 μg/ml) and fibronectin (10 μg/ml, Boehringer Mannheim). 20,000-40,000 cells in serum-free DMEM were added to the upper well while the chemoattractants were added to the lower well. When present, antibodies or desensitizing molecules were pre-incubated with the cells for one hour and were then added to both wells of Boyden chambers during the chemotaxis assay. Migration lasted for […] in the case of THP-1 cells and 4-6 hours for the HEK293 or HEK293/FPRL1 cells. After migration at 37° C., cells remaining on the upper surface of filters were scraped off, the filters were fixed in methanol and stained in a solution of 10% (w/v) crystal violet in 20% (v/v) methanol. The experiments were performed in triplicate and the results presented represent the mean ±SD of the number of cells counted in ten high power fields per filter and are representative of at least three experiments. Random cell migration, i. e. migration in the absence of chemoattractant, was given the arbitrary value of 100%.
# HIV-1 in U1 cells = experiment: PMA-induced HIV-1 reactivation in U1 cells (RT activity); type: cell-based
# Description: Cell Lines p U1 cells were stimulated at the density of 2×10^5 cells per ml in RPMI 1640 (Whittaker M. A. Bioproducts, Walkerville, Md.) containing 10% FCS. Cells were preincubated with uPA, uPAR, suPA, R2, R3, R4, R5 antibodies for 20 min at 37° C. prior to addition of stimuli. U1 parental cell line U937 was used as a control in the transfection experiments. U937 cells were purchased from ATCC and maintained in RPMI 1640 medium in the presence of FCS before and after infection with the X4 HIV-1LAI/IIIB. For infection, cells were seeded at 2×10^5 cells/ml in 96-well flat bottomed plates (Falcon, Becton-Dickinson Labware, Lincoln Park, N.J.) and infected with 1−2×10^7 virus particles diluted from a stock of pelleted virus (Advanced Biotechnology, Inc., Columbia, Md.). After infection, 2 h at 37° C., cells were washed and resuspended in RPMI 1640 medium.
# Viral expression was monitored by determination of Mg^2+-dependent Reverse Trascriptase (RT) activity in culture supernatants (Poli, 1990). In particular, 5 microliters of supernatants was added to 25 microliters of a mixture containing poly(A), oligo(dT) (Pharmacia Fine Chemicals, Piscataway, N.J.), MgC12, and 32P-labeled deoxythymidine 5′-triphosphate (dTTP) (Amersham Corp., Arlington Heights, Ill.), and incubated for 2 h at 37°°C. 6 microliters of the mixture was spotted onto DE81 paper, air dried, washed five times in 2× SSC buffer, and two additional times in 95% ethanol. The paper was then dried and counted on a scintillation counter (LS 5000, Beckman Instruments, Inc., Fullerton, Calif.).
# For all experiments, culture supernatants were collected every day for five days, in the case of cell line, or every three days for infection of U937 and primary cells. Reagents were replenished every time culture medium was changed. Data representative of one out of three independent experiments are shown. Results are presented as means of triplicate cultures, and the error bar show the standard deviation from the mean.
# HEK293 cells = experiment: chemotaxis of HEK293 cells; type: cell-based, human; details: untransfected HEK293, FIG. 10
# Description: (§2) The THP-1 cells used in the present example have been previously described (Resnati, 1996). Human HEK293 cells were kindly donated by Dr. Hal Chapman and human HEK293/FPRL1 from Dr. J. M. Wang. […] HEK293/FPRL1 cells have been generated by transfection of FPRL1 cDNA in HEK293 cells (Murphy, 1996).
# as §1, with “Random cell migration, i. e. migration in the absence of chemoattractant, was given the arbitrary value of 100%.” left out
# [1] = chemotaxis-promotion by uPAR peptides (data not shown); type: cell-based
# [2] = biological target: FPRL1/LXA4R, seven trans-membrane G-protein-coupled receptor (human) (UniProt P25090); experiment: cell-based or functional assay
# Sequence of UniProt P25090 (P25090 whole entry): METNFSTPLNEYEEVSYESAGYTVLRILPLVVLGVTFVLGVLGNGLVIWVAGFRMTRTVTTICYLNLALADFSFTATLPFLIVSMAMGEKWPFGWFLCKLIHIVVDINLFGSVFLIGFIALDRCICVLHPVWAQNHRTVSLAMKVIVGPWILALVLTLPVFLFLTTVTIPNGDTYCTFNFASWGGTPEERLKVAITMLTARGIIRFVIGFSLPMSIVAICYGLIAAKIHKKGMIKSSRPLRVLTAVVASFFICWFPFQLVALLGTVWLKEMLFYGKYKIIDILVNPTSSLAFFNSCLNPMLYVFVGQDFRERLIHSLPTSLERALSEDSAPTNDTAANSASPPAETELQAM
# [3] = test system: Human peripheral blood monocytes; experiment: chemotaxis of peripheral blood monocytes; type: cell-based; details: fresh human monocytes, FIG. 13
# Description: as §1
# THP-1 cells have been described before (Resnati, 1996). […] The purity of the separated populations was determined by flow cytometry analyses with anti-CD14 monoclonal antibodies.
# HEK293/FPRL1 cells = experiment: chemotaxis of HEK293 transfected with FPRL1/LXA4R; type: cell-based, human; details: FIG. 10
# Description: as §2
# as §1, with “Random cell migration, i. e. migration in the absence of chemoattractant, was given the arbitrary value of 100%.” left out
molecule,measurement,setting,value
"CSCC[C@H](NC=O)C(=O)N[C@@H](CC(C)C)C(=O)N[C@@H](Cc1ccccc1)C(=O)O [fMLP, formyl-methionyl-leucyl-phenylalanine]",de-sensitization against D2D388-279 and ATF,THP-1 cells; 20 μM,de-sensitized
same,effect on MCP-1 chemotaxis (de-sensitization),"THP-1 cells; THP-1 cells, FIG. 9B",did not affect
same,IC50,"THP-1 cells; THP-1 cells, FIG. 9B, read-out: concentration inhibiting D2D388-279 chemotaxis by 50% (de-sensitization)",10 to 20 µM
same,effect on MCP-1 chemotaxis (de-sensitization),"THP-1 cells; THP-1 cells, very high concentrations (200 μM)",marginally
ATF: amino terminal fragment of uPA with full receptor-binding and no enzymatic activity,effect on PMA-induced HIV-1 expression,"HIV-1 in U1 cells; PMA 10 nM, FIG. 2",fully reproduces the pro-uPA effect
same,chemotactic response of the cells,HEK293 cells,do not respond
same,induction of chemotaxis,THP-1 cells; THP-1 cells,induce chemotaxis
AVTYSRSRYLEC (listed as Homo sapiens),chemotaxis-promotion,[1],active
same,chemotaxis-promotion after cleavage with plasmin,"[1]; peptide cleaved with plasmin, data not shown",destroyed the activity
"D2D388-278, D2D3 fragment obtained by cleavage of suPAR with chymotrypsin (from UniProt Q03405 110-300) (receptor)",chemotaxis of HEK293 cells transfected with FPRL1/LXA4R,[2],0.1 nM
"D2D388-279: chymotrypsin-cleaved, soluble, purified form of uPAR endowed with potent chemotactic activity",induction of chemotaxis,[3],induce chemotaxis
same,chemotactic response of the cells,HEK293/FPRL1 cells,respond well
same,concentration of maximum chemotactic response,HEK293/FPRL1 cells,about 0.1 nM
same,chemotactic response of the cells,HEK293 cells,do not respond
MCP-1: monocytes chemotactic protein-1 [reference compound],induction of chemotaxis,[3],induce chemotaxis
same,induction of chemotaxis,THP-1 cells; THP-1 cells,induce chemotaxis
SRSRY (listed as Homo sapiens),chemotaxis-promotion,[1],active
TGF-β [reference compound],inhibition of PMA-induced HIV-1 replication/expression,"HIV-1 in U1 cells; pro-uPA 10 nM, TGF-beta 5 ng/ml, alone or combined, FIG. 4C",60%
suPAR: recombinant soluble uPAR which specifically binds pro-uPA,effect on the inhibition of PMA-induced HIV-1 expression by pro-uPA,"HIV-1 in U1 cells; with pro-uPA, FIG. 2D, FIG. 3",blocked
